Numbers after ± are expanded uncertainties. One block for each compound: values may come before it.
Settings: Liquid, Ebulliometric method (Recirculating still)

SMILES: C1CCCCC1 [cyclohexane]
vapor or sublimation pressure (353.94 K): 101.3 ± 5.1 kPa

SMILES: COC(=O)CCC(=O)OC [dimethyl 1,4-butanedioate]
vapor or sublimation pressure (363.39 K): 2 ± 0.3 kPa | vapor or sublimation pressure (382.13 K): 5.2 ± 0.3 kPa | vapor or sublimation pressure (393.49 K): 8.3 ± 0.3 kPa

Results, then the compound that gave them:

vapor or sublimation pressure (376.09 K): 2 ± 0.3 kPa | vapor or sublimation pressure (395.8 K): 5.2 ± 0.3 kPa | vapor or sublimation pressure (407.11 K): 8.3 ± 0.3 kPa
SMILES: COC(=O)CCCC(=O)OC [dimethyl pentanedioate]

vapor or sublimation pressure (371.53 K): 101.3 ± 5.1 kPa
SMILES: CCCCCCC [heptane]

vapor or sublimation pressure (390.98 K): 2 ± 0.3 kPa | vapor or sublimation pressure (410.82 K): 5.2 ± 0.3 kPa | vapor or sublimation pressure (422.47 K): 8.3 ± 0.3 kPa
SMILES: COC(=O)CCCCC(=O)OC [dimethyl 1,6-hexanedioate]

Reference: the NIST ThermoML archive (doi:10.1016/j.jct.2019.02.006)
